Data reported in patent US20240174641A1, “HETEROCYCLIC COMPOUNDS CAPABLE OF […]” (Boehringer Ingelheim International GmbH, priority 2022, published 2024).
pEC50: −log10 of the molar value.

Columns and labels:
STING = STING (Canis lupus familiaris, UniProt A0A8I3MH52); assay: Dog whole blood (dWB) assay, IFNb secretion by ELISA; type: cell-based; conditions: canine Interferon-beta (IFNb) ELISA, 4 h incubation at 37° C.
Protocol: For the detection of STING activation in physiological environment dog whole blood (dWB) was stimulated by the cyclic dinucleotide cGAMP or a test compound. Pathway activity was monitored by measuring the IFNb production.
Compounds were delivered as 10 mM DMSO solution, diluted and transferred by using an Echo acoustic dispenser to the 384 well assay plate (Greiner #781182), pre-filled with 10 μl 1×HBSS in each well (10×HBSS (+Ca/+Mg), #14065-049, Gibco). Typically, 8 concentrations were used with the highest concentration at 10 μM in the final assay volume followed by approximately 1:4 dilution steps. DMSO concentration was set to 0.1% in the final assay volume. The 384-well assay plate contained 20 test compounds and DMSO in control and cGAMP standard wells. The dog whole blood was collected as Na-Citrate blood (e.g., 3.8% in Monovettes from Sarstedt) and kept at 4° C. overnight until use in the assay. 80 μl of the whole blood samples were transferred to each well of the 384-well assay plates filled with compound/1×HBSS. Blood plates were kept at room temperature for 60 minutes and continuous shaking with 450 rpm, covered with the lid, but not sealed. A 10×cGAMP assay solution was diluted from a 2 mM stock solution in 1×HBSS immediately before use at room temperature. 10 μl of the 10×cGAMP/HBSS were added to the high control wells, whereas HBSS only was added to all compound and low control wells. After covering assay plates with the lid, blood plates were kept for a 4 h incubation at 37° C. in the incubator, without shaking. For the detection of IFNb in dog plasma the ELISA Kit for Canine Interferon Beta (Biotrend #SEA222Ca) was used. Whole blood assay plates were centrifuged at 1000 g for 10 minutes at 8° C. […] was transferred with a 96 well pipetting robotics from the 384 well whole blood plate to the corresponding 96 well ELISA plate, pre-filled with 60 μl assay diluent in each well. Plates were sealed with microplate seals and kept at 4° C. overnight again. ELISA plates were brought to room temperature, followed by a 1 h incubation at 37° C. in the incubator. Detection Reagent A working solution was prepared by diluting Detection Reagent A 1:100 in Assay Reagent A. Liquid was then removed from the 96 well ELISA plate to add 100 μL Detection Reagent A working solution to each well. ELISA plates were covered with the plate sealer and incubated for 1 hour at 37° C. in the incubator. The 1× Wash buffer was prepared by diluting the 30× Wash Buffer Concentrate in H2O. Detection Reagent B working solution was prepared by diluting Detection Reagent B 1:100 in Assay Reagent B. The ELISA plates were washed three times with 350 μl wash buffer and afterwards inverted and blotted against absorbent paper to remove any liquid. 100 μL of Detection Reagent B working solution was added to each well of the ELISA plates, which are then covered with the plate sealer and incubated for 30 minutes at 37° C. in the incubator. After incubation the ELISA assay plates were washed five times with 350 μl wash buffer and were again inverted and blotted against absorbent paper to remove any remaining liquid. 90 μL of TMB Substrate was added to each well of the ELISA plates, which were then covered with the plate sealer and incubated for 15 minutes at 37° C. in the incubator. The reaction was stopped by adding 50 μL stop solution and absorbance was measured at 450 nm immediately.
For data evaluation and calculation, % control calculation of each well was based on the mean of high (cGAMP stimulated control) and mean of low (unstimulated control) controls by using the following standard 4 parameter logistic regression formula:
[y=(a−d)/(1+(x/c)^b)+d] • a=low value, • d=high value, • x=conc M, • c=EC50 M, • b=slope. Dog Liver Microsome (dLM) Assay

dog STING (dSTING) = assay: Dog differential scanning fluorimetry (DSF) assay, thermal shift of dog STING protein; type: binding; conditions: DSF (dDSF); 100 μM compound, 3 μM dog STING protein; Tm with ligand minus Tm of protein alone
Excerpt: The protein used for the biophysical experiments was a recombinant dog STING protein comprising its cytosolic cGAMP binding ectodomain. A codon optimized DNA sequence (for expression in Escherichia coli) encoding amino acid residues 149 to 375 of dog STING was synthesized by GeneArt (Regensburg, Germany) and inserted into a pET17b E. coli expression vector. The protein construct encodes an N-terminal 8×His-tag followed by tobacco etch virus protease (TEV) cleavage site and the above STING gene sequence. The resulting protein sequence for the used dog STING protein (SEQ ID No. 1) is listed below:
For expression of the above recombinant dog STING, the construct was transformed into E. coli BL21 DE3 strain and grown in shake flasks in LB-medium at 15° C. Expression was induced by addition of isopropyl β-D-1-thiogalactopyranoside to a final concentration of 1 mM and cultures shaken overnight. Cell pellets were centrifuged and stored at −70° C. until further use. Protein was purified by cell thawing in lysis buffer (20 mM TRIS-HCl, pH 8, 500 mM NaCl, 1 mM DTT, 0.5 mg/ml lysozyme, Complete Protease Inhibitor (Roche) and DNase (Roche)), followed by metal affinity purification using Ni-NTA resins and elution buffer consisting of 20 mM TRIS-HCl, pH 8, 500 mM NaCl, 1 mM DTT, 300 mM imidazole. Cleavage of the His-Tag using TEV-protease took place during dialysis in size exclusion buffer (20 mM TRIS-HCl, pH 8, 100 mM NaCl, 1 mM DTT) over night. To further purify the target protein a reverse Nickel affinity column was used and the flow through was applied to a size exclusion chromatography. The peak fraction was collected and concentrated to 5 mg/mL.
Dye fluorescence is quenched in aqueous environment and increases upon association of the dye with the hydrophobic parts of the unfolding protein. […] The inflection point of the curve represents the “melting” temperature of the protein (Tm) which is calculated numerically using the Boltzmann equation.
The thermal stability of the dog STING protein was measured in assay buffer containing 20 mM Tris, 150 mM NaCl at pH7.5. The assay uses 384-Well qPCR Plates (Catalog #781358, BRAND), Microseal® ‘B’ Adhesive Seals for PCR Plates (Catalog #MSB-1001, BIO-RAD) and was run on a CFX384 Real-Time System (Bio-Rad). A DMSO stock solution of SYPRO orange (SIGMA 55692-500UL) was prepared. Compound stock solutions (10 mM in DMSO) were diluted 1:2 in DMSO to an intermediate compound concentration of 5 mM and then further diluted 1:40 in assay buffer resulting in a compound concentration of 125 μM and 2.5% DMSO. Fluorescent dye stock solution (5000×SYPRO Orange) was then mixed with target protein and buffer to a concentration of 15 μM Protein and 25×SYPRO Orange. 2 μl of this protein-dye-mixture was added to 8 μl compound solution. Final volume was 10 μL. 3-6 well positions were used as negative control (protein with 2% DMSO). The plates were prepared for duplicate measurement and centrifuged for 2 min at 1000 g. In the measurement, 160 cycles of 0.5° C. were used (temperature ramp 15 s/cycle, 15° C. to 95° C.).
Final Assay concentrations for compound characterization were 100 μM compound, 3 μM target protein, 5×SYPRO Orange, and 2% DMSO in 10 μl. All dispensing steps were performed using a HamiltonStar pipetting robot (Hamilton).
Dissociation curves were processed in Bio-Rad CFX Manager. Peak type was set to “negative”. Compound codes for screen were assigned in the plate layout.
Two replicates of TM measurements were averaged, and the standard deviation was calculated. In cases of SD>1.5° C. the measurement was repeated.
The melting point (Tm) obtained for STING protein alone was subtracted from T obtained for protein incubated with ligand to generate ΔTm values.

STING, sequence (A0A8I3MH52 1-374): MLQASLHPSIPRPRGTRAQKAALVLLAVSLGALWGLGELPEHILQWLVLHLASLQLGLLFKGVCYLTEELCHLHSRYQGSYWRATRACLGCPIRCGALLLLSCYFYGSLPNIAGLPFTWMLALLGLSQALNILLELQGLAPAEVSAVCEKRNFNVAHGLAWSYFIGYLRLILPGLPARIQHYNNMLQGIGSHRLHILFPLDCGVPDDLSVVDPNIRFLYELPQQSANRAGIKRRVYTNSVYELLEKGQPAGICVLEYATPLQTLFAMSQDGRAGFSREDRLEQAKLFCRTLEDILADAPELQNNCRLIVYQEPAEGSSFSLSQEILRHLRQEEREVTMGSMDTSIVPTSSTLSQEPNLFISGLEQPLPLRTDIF

Row | SMILES | pEC50 (STING) | Delta TM (dog STING (dSTING))
1 | Cc1cc(F)cc2c(-c3c(F)ccc4nn(C)cc34)nn(-c3ccc(N4C[C@@H]5[C@H](C4)[C@H]5C(=O)O)nc3)c12 [Example 14, (1R,5S,6R)-3-(5-{5,5″-Difluoro-2″,7-dimethyl-1H,2″H-[3,4″-biindazol]-1-yl}pyridin-2-yl)-3-azabicyclo[3.1.0]hexane-6-carboxylic acid] | 6.41 | 38.0 °C
2 | Cc1cccc2c(-c3cc(F)cc4nn(C)cc34)nn(-c3ccc(N4C[C@@H]5[C@H](C4)[C@H]5C(=O)O)nc3)c12 [Example 34, (1R,5S,6R)-3-(5-{6″-fluoro-2″,7-dimethyl-1H,2″H-[3,4″-biindazol]-1-yl}pyridin-2-yl)-3-azabicyclo[3.1.0]hexane-6-carboxylic acid] | 5.48 | 24.8 °C
3 | CC(=O)N1C[C@H]2C[C@@H]1CN2c1ccc(-n2nc(-c3c(F)ccc4nn(C)cc34)c3cccc(C)c32)cn1 [Example 31, 1-[(1R,4R)-5-(5-{5″-fluoro-2″,7-dimethyl-1H,2″H-[3,4″-biindazol]-1-yl}pyridin-2-yl)-2,5-diazabicyclo[2.2.1]heptan-2-yl]ethan-1-one] | 7.00 | 30.5 °C
4 | CC(=O)N1CCN(c2ccc(-n3nc(-c4cccc5nn(C)c(F)c45)c4ccc(F)c(C)c43)cn2)CC1 [Example 61, 1-[4-(5-{3″,6-difluoro-2″,7-dimethyl-1H,2″H-[3,4″-biindazol]-1-yl}pyridin-2-yl)piperazin-1-yl]ethan-1-one] | 6.61 | 30.8 °C
5 | Cc1cccc2c(-c3c(F)ccc4nn(C)cc34)nn(-c3ccc(N4CCC(C(=O)O)CC4)nc3)c12 [Example 6, 1-(5-{5″-Fluoro-2″,7-dimethyl-1H,2″H-[3,4″-biindazol]-1-yl}pyridin-2-yl)piperidine-4-carboxylic acid] | 6.61 | 35.5 °C
6 | CC(=O)N1C[C@@H]2C[C@H]1CN2c1ccc(-n2nc(-c3cccc4nn(C)c(F)c34)c3cccc(C)c32)cn1 [Example 21, 1-[(1S,4S)-5-(5-{3″-fluoro-2″,7-dimethyl-1H,2″H-[3,4″-biindazol]-1-yl}pyridin-2-yl)-2,5-diazabicyclo[2.2.1]heptan-2-yl]ethan-1-one] | 6.00 | 24.9 °C
7 | CC(=O)N1CCN(c2ccc(-n3nc(-c4c(F)ccc5nn(C)cc45)c4cccc(C)c43)cn2)CC1 [Example 29, 1-[4-(5-{5″-fluoro-2″,7-dimethyl-1H,2″H-[3,4″-biindazol]-1-yl}pyridin-2-yl)piperazin-1-yl]ethan-1-one] | 6.86 | 32.0 °C
8 | Cc1cccc2c(-c3c(F)ccc4nn(C)cc34)nn(-c3ccc(N4CC[C@@H](CC(=O)O)C4)nc3)c12 [Example 24, 2-[(3S)-1-(5-{5″-fluoro-2″,7-dimethyl-1H,2″H-[3,4″-biindazol]-1-yl}pyridin-2-yl)pyrrolidin-3-yl]acetic acid] | 6.57 | 35.5 °C
9 | Cc1cccc2c(-c3c(F)cc(F)c4nn(C)cc34)nn(-c3ccc(N4CC[C@H](CC(=O)O)C4)nc3)c12 [Example 46, 2-[(3R)-1-(5-{5″,7″-difluoro-2″,7-dimethyl-1H,2″H-[3,4″-biindazol]-1-yl}pyridin-2-yl)pyrrolidin-3-yl]acetic acid] | 6.58 | 35.3 °C
10 | Cc1c(F)ccc2c(-c3c(F)ccc4nn(C)cc34)nn(-c3ccc(N4CCC(C(=O)O)CC4)nc3)c12 [Example 65, 1-(5-{5″,6-difluoro-2″,7-dimethyl-1H,2″H-[3,4″-biindazol]-1-yl}pyridin-2-yl)piperidine-4-carboxylic acid] | 6.48 | 36.5 °C
11 | Cc1cccc2c(-c3c(Cl)ccc4nn(C)cc34)nn(-c3ccc(N4C[C@@H]5[C@H](C4)[C@H]5C(=O)O)nc3)c12 [Example 77, (1R,5S,6S)-3-(5-{5″-chloro-2″,7-dimethyl-1H,2″H-[3,4″-biindazol]-1-yl}pyridin-2-yl)-3-azabicyclo[3.1.0]hexane-6-carboxylic acid] | 5.96 | 27.4 °C
12 | Cc1cccc2c(-c3c(F)cc(F)c4nn(C)cc34)nn(-c3ccc(N4C[C@@H]5[C@H](C4)[C@H]5C(=O)O)nc3)c12 [Example 7, (1R,5S,6S)-3-(5-{5″,7″-Difluoro-2″,7-dimethyl-1H,2″H-[3,4″-biindazol]-1-yl}pyridin-2-yl)-3-zabicyclo[3.1.0]hexane-6-carboxylic acid] | 6.60 | 35.5 °C
13 | Cc1cccc2c(-c3c(F)cc(F)c4nn(C)cc34)nn(-c3ccc(N4C[C@@H]5C[C@H]4C[C@H]5C(=O)O)nc3)c12 (single isomer, unassigned) [Example 47-1] | 6.20 | 34.0 °C
14 | Cc1cccc2c(-c3c(F)ccc4nn(C)cc34)nn(-c3ccc(N4C[C@H]5C[C@@H]4C[C@@H]5C(=O)O)nc3)c12 [Example 27-2, (1R,4S,5S)-2-(5-{5″-fluoro-2″,7-dimethyl-1H,2″H-[3,4″-biindazol]-1-yl}pyridin-2-yl)-2-azabicyclo[2.2.1]heptane-5-carboxylic acid] | 6.61 | 35.6 °C
